According to paper PMC10905675, “INX-315, a Selective CDK2 Inhibitor, Induces Cell Cycle Arrest and Senescence in Solid Tumors” (Cancer Discovery, 2023):

What was measured:
Assay in all cases: SelectScreen LanthaScreen Binding
Conditions in all cases: INX-0315 at 100nM
CDK11 (Inactive) = target: T1, CDK11 (Inactive) (Homo sapiens, UniProt Q9BWU1)
T1 construct: purchased Thermo Fisher Scientific SelectScreen (plus Nanosyn / Reaction Biology for CDK/cyclin lines)
From the text: (§1) INX-315 was first evaluated in the SelectScreen Biochemical Kinase Profiling at Thermo Fisher Scientific (Madison, WI). The primary screen consisted of INX-315 dosed at a single concentration of 100 nmol/L in 1% DMSO across each platform within the SelectScreen array of assays, LanthaScreen Eu Kinase Binding Assay; AdaptaScreen; and Z'LyteScreen using preestablished conditions at Thermo Fisher Scientific as shown in Supplementary Table S2. […] The follow-up screen consisted of 10-point dose–response curves for INX-315 from 1 µmol/L to 0.0495 nmol/L.

BRSK2 = target: T2, BRSK2 (Homo sapiens, UniProt Q8IWQ3)
T2 construct: purchased Thermo Fisher Scientific SelectScreen (plus Nanosyn / Reaction Biology for CDK/cyclin lines)
From the text: as §1

BMPR2 = target: T3, BMPR2 (Homo sapiens, UniProt Q13873)
T3 construct: purchased Thermo Fisher Scientific SelectScreen (plus Nanosyn / Reaction Biology for CDK/cyclin lines)
From the text: as §1

ALK F1174L = target: T4, ALK F1174L (Homo sapiens, UniProt Q9UM73, F1174L)
T4 construct: purchased Thermo Fisher Scientific SelectScreen (plus Nanosyn / Reaction Biology for CDK/cyclin lines)
From the text: as §1

WNK2 = target: T5, WNK2 (Homo sapiens, UniProt Q9Y3S1)
T5 construct: purchased Thermo Fisher Scientific SelectScreen (plus Nanosyn / Reaction Biology for CDK/cyclin lines)
From the text: as §1

BRAF V599E = target: T6, BRAF V599E (Homo sapiens, UniProt P15056, V600E)
T6 construct: purchased Thermo Fisher Scientific SelectScreen (plus Nanosyn / Reaction Biology for CDK/cyclin lines)
From the text: as §1

GRK1 = target: T7, GRK1 (Homo sapiens, UniProt Q15835)
T7 construct: purchased Thermo Fisher Scientific SelectScreen (plus Nanosyn / Reaction Biology for CDK/cyclin lines)
From the text: as §1

AMPK (A1/B2/G1) = target: T8, AMPK (A1/B2/G1) (Homo sapiens, UniProt Q13131)
T8 construct: purchased Thermo Fisher Scientific SelectScreen (plus Nanosyn / Reaction Biology for CDK/cyclin lines)
From the text: as §1

DDR2 = target: T9, DDR2 (Homo sapiens, UniProt Q16832)
T9 construct: purchased Thermo Fisher Scientific SelectScreen (plus Nanosyn / Reaction Biology for CDK/cyclin lines)
From the text: as §1

MASTL = target: T10, MASTL (Homo sapiens, UniProt Q96GX5)
T10 construct: purchased Thermo Fisher Scientific SelectScreen (plus Nanosyn / Reaction Biology for CDK/cyclin lines)
From the text: as §1

EPHA7 = target: T11, EPHA7 (Homo sapiens, UniProt Q15375)
T11 construct: purchased Thermo Fisher Scientific SelectScreen (plus Nanosyn / Reaction Biology for CDK/cyclin lines)
From the text: as §1

STK17B (DRAK2) = target: T12, STK17B (DRAK2) (Homo sapiens, UniProt O94768)
T12 construct: purchased Thermo Fisher Scientific SelectScreen (plus Nanosyn / Reaction Biology for CDK/cyclin lines)
From the text: as §1

MAP3K2 (MEKK2) = target: T13, MAP3K2 (MEKK2) (Homo sapiens, UniProt Q9Y2U5)
T13 construct: purchased Thermo Fisher Scientific SelectScreen (plus Nanosyn / Reaction Biology for CDK/cyclin lines)
From the text: as §1

MYO3B (MYO3 beta) = target: T14, MYO3B (MYO3 beta) (Homo sapiens, UniProt Q8WXR4)
T14 construct: purchased Thermo Fisher Scientific SelectScreen (plus Nanosyn / Reaction Biology for CDK/cyclin lines)
From the text: as §1

FGFR1 V561M = target: T15, FGFR1 V561M (Homo sapiens, UniProt P11362, V561M)
T15 construct: purchased Thermo Fisher Scientific SelectScreen (plus Nanosyn / Reaction Biology for CDK/cyclin lines)
From the text: as §1

AMPK (A2/B2/G2) = target: T16, AMPK (A2/B2/G2) (Homo sapiens, UniProt P54646)
T16 construct: purchased Thermo Fisher Scientific SelectScreen (plus Nanosyn / Reaction Biology for CDK/cyclin lines)
From the text: as §1

CAMK2G (CaMKII gamma) = target: T17, CAMK2G (CaMKII gamma) (Homo sapiens, UniProt Q13555)
T17 construct: purchased Thermo Fisher Scientific SelectScreen (plus Nanosyn / Reaction Biology for CDK/cyclin lines)
From the text: as §1

[1] = target: T18, EGFR (ErbB1) d747-749 A750P (Homo sapiens, UniProt P00533, A750P/DEL747-749)
T18 construct: purchased Thermo Fisher Scientific SelectScreen (plus Nanosyn / Reaction Biology for CDK/cyclin lines)
From the text: as §1

DAPK2 = target: T19, DAPK2 (Homo sapiens, UniProt Q9UIK4)
T19 construct: purchased Thermo Fisher Scientific SelectScreen (plus Nanosyn / Reaction Biology for CDK/cyclin lines)
From the text: as §1

BMPR1B (ALK6) = target: T20, BMPR1B (ALK6) (Homo sapiens, UniProt O00238)
T20 construct: purchased Thermo Fisher Scientific SelectScreen (plus Nanosyn / Reaction Biology for CDK/cyclin lines)
From the text: as §1

ULK1 = target: T21, ULK1 (Homo sapiens, UniProt O75385)
T21 construct: purchased Thermo Fisher Scientific SelectScreen (plus Nanosyn / Reaction Biology for CDK/cyclin lines)
From the text: as §1

ICK = target: T22, ICK (Homo sapiens, UniProt Q9UPZ9)
T22 construct: purchased Thermo Fisher Scientific SelectScreen (plus Nanosyn / Reaction Biology for CDK/cyclin lines)
From the text: as §1

STK16 (PKL12) = target: T23, STK16 (PKL12) (Homo sapiens, UniProt O75716)
T23 construct: purchased Thermo Fisher Scientific SelectScreen (plus Nanosyn / Reaction Biology for CDK/cyclin lines)
From the text: as §1

RIPK3 = target: T24, RIPK3 (Homo sapiens, UniProt Q9Y572)
T24 construct: purchased Thermo Fisher Scientific SelectScreen (plus Nanosyn / Reaction Biology for CDK/cyclin lines)
From the text: as §1

KIT N822K = target: T25, KIT N822K (Homo sapiens, UniProt P10721, N822K)
T25 construct: purchased Thermo Fisher Scientific SelectScreen (plus Nanosyn / Reaction Biology for CDK/cyclin lines)
From the text: as §1

KIT D816V = target: T26, KIT D816V (Homo sapiens, UniProt P10721, D816V)
T26 construct: purchased Thermo Fisher Scientific SelectScreen (plus Nanosyn / Reaction Biology for CDK/cyclin lines)
From the text: as §1

MYLK4 = target: T27, MYLK4 (Homo sapiens, UniProt Q86YV6)
T27 construct: purchased Thermo Fisher Scientific SelectScreen (plus Nanosyn / Reaction Biology for CDK/cyclin lines)
From the text: as §1

ACVR2B = target: T28, ACVR2B (Homo sapiens, UniProt Q13705)
T28 construct: purchased Thermo Fisher Scientific SelectScreen (plus Nanosyn / Reaction Biology for CDK/cyclin lines)
From the text: as §1

RIPK2 = target: T29, RIPK2 (Homo sapiens, UniProt O43353)
T29 construct: purchased Thermo Fisher Scientific SelectScreen (plus Nanosyn / Reaction Biology for CDK/cyclin lines)
From the text: as §1

TGFBR2 = target: T30, TGFBR2 (Homo sapiens, UniProt P37173)
T30 construct: purchased Thermo Fisher Scientific SelectScreen (plus Nanosyn / Reaction Biology for CDK/cyclin lines)
From the text: as §1

AMPK (A1/B1/G2) = target: T31, AMPK (A1/B1/G2) (Homo sapiens, UniProt Q13131)
T31 construct: purchased Thermo Fisher Scientific SelectScreen (plus Nanosyn / Reaction Biology for CDK/cyclin lines)
From the text: as §1

[2] = target: T32, MAP3K7/MAP3K7IP1 (TAK1-TAB1) (Homo sapiens, UniProt O43318)
T32 construct: purchased Thermo Fisher Scientific SelectScreen (plus Nanosyn / Reaction Biology for CDK/cyclin lines)
From the text: as §1

CDK16 (PCTK1)/cyclin Y = target: T33, CDK16 (PCTK1)/cyclin Y (Homo sapiens, UniProt Q00536)
T33 construct: purchased Thermo Fisher Scientific SelectScreen (plus Nanosyn / Reaction Biology for CDK/cyclin lines)
From the text: as §1

ABL1 H396P = target: T34, ABL1 H396P (Homo sapiens, UniProt P00519, H396P)
T34 construct: purchased Thermo Fisher Scientific SelectScreen (plus Nanosyn / Reaction Biology for CDK/cyclin lines)
From the text: as §1

BRAF = target: T35, BRAF (Homo sapiens, UniProt P15056)
T35 construct: purchased Thermo Fisher Scientific SelectScreen (plus Nanosyn / Reaction Biology for CDK/cyclin lines)
From the text: as §1

MAPK15 (ERK7) = target: T36, MAPK15 (ERK7) (Homo sapiens, UniProt Q8TD08)
T36 construct: purchased Thermo Fisher Scientific SelectScreen (plus Nanosyn / Reaction Biology for CDK/cyclin lines)
From the text: as §1

KIT V654A = target: T37, KIT V654A (Homo sapiens, UniProt P10721, V654A)
T37 construct: purchased Thermo Fisher Scientific SelectScreen (plus Nanosyn / Reaction Biology for CDK/cyclin lines)
From the text: as §1

T4 sequence (Q9UM73 19-1620 F1174L): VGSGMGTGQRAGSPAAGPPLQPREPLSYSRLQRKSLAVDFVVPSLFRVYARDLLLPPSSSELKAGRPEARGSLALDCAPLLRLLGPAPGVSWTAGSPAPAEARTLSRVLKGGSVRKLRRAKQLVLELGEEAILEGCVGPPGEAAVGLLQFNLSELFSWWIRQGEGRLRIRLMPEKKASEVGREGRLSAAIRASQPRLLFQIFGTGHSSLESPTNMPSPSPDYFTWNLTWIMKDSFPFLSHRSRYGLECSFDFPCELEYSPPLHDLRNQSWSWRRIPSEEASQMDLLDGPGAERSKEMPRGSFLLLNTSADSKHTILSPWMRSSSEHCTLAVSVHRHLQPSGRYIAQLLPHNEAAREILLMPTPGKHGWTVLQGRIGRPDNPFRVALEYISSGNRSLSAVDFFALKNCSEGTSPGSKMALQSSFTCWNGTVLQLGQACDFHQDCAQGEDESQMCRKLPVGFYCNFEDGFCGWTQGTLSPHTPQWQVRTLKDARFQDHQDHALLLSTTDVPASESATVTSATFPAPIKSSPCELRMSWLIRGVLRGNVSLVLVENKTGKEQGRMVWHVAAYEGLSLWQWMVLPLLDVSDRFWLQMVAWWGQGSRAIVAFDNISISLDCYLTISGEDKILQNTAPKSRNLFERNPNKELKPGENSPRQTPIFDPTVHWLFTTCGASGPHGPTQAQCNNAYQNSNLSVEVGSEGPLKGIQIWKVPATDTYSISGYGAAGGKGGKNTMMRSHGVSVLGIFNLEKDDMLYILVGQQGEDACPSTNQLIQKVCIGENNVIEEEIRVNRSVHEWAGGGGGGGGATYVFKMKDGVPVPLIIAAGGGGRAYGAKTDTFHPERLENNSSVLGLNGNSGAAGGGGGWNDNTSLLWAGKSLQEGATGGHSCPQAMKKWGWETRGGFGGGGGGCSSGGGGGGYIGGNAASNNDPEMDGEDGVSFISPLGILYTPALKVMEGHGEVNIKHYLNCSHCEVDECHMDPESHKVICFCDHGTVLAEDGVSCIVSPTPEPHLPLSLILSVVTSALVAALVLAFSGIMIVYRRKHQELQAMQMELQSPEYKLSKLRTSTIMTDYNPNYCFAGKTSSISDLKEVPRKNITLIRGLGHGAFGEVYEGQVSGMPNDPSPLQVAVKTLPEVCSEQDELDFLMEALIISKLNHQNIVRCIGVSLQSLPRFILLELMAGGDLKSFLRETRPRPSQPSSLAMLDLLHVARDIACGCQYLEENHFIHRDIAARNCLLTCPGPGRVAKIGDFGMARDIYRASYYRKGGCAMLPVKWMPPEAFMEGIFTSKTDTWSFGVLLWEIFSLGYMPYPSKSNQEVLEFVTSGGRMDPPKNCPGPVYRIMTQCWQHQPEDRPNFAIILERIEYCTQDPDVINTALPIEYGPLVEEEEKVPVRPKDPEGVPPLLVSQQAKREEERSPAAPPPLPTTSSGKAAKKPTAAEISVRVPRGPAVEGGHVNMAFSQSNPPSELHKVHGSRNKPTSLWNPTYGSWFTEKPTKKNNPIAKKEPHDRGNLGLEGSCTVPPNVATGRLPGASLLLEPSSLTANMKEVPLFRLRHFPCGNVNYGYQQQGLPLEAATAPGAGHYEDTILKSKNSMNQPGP
T2 sequence (Q8IWQ3 whole entry): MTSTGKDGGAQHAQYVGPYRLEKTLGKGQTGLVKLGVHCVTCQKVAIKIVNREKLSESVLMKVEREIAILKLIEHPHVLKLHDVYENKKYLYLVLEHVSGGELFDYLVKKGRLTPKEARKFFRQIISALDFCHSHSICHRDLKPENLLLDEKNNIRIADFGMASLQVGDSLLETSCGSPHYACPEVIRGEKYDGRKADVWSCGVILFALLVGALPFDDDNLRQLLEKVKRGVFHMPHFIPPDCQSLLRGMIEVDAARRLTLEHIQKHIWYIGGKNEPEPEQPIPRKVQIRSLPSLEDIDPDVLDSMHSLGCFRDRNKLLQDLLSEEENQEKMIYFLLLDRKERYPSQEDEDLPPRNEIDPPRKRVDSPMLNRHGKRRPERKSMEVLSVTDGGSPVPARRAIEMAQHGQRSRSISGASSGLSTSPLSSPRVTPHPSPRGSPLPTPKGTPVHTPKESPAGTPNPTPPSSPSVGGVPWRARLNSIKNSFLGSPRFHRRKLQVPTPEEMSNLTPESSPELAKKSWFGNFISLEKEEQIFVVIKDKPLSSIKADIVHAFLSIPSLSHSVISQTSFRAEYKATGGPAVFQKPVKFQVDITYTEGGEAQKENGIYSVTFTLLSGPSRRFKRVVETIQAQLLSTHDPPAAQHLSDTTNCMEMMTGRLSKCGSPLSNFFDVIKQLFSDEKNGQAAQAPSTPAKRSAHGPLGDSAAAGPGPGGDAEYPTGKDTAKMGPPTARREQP
T19 sequence (Q9UIK4 whole entry): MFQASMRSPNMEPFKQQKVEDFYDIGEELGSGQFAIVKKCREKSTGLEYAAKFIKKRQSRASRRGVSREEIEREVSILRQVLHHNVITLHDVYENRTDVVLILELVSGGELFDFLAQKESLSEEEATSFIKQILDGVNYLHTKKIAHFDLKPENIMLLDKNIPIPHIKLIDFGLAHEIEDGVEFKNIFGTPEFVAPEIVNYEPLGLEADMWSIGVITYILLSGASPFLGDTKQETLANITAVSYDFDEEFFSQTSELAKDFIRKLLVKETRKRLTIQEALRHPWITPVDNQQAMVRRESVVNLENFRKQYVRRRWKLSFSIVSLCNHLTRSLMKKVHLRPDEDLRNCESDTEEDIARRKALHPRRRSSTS
T13 sequence (Q9Y2U5 whole entry): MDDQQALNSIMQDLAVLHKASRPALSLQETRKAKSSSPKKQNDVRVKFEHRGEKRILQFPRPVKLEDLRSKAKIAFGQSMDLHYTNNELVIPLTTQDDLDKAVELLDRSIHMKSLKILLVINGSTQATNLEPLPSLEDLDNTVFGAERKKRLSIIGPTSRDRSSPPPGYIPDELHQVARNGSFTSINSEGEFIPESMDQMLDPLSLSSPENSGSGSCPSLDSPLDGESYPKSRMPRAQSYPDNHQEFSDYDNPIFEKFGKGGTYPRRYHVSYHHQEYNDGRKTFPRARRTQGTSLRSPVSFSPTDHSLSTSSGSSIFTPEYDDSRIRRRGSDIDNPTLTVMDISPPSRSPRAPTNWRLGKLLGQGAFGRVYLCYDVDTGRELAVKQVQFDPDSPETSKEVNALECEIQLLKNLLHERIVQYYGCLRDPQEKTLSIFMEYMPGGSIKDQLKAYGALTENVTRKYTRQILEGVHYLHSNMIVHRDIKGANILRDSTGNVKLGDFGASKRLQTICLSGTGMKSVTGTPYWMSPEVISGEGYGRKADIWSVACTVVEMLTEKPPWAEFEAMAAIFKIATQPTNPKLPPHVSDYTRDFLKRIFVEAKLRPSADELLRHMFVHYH
T25 sequence (P10721 26-976 N822K): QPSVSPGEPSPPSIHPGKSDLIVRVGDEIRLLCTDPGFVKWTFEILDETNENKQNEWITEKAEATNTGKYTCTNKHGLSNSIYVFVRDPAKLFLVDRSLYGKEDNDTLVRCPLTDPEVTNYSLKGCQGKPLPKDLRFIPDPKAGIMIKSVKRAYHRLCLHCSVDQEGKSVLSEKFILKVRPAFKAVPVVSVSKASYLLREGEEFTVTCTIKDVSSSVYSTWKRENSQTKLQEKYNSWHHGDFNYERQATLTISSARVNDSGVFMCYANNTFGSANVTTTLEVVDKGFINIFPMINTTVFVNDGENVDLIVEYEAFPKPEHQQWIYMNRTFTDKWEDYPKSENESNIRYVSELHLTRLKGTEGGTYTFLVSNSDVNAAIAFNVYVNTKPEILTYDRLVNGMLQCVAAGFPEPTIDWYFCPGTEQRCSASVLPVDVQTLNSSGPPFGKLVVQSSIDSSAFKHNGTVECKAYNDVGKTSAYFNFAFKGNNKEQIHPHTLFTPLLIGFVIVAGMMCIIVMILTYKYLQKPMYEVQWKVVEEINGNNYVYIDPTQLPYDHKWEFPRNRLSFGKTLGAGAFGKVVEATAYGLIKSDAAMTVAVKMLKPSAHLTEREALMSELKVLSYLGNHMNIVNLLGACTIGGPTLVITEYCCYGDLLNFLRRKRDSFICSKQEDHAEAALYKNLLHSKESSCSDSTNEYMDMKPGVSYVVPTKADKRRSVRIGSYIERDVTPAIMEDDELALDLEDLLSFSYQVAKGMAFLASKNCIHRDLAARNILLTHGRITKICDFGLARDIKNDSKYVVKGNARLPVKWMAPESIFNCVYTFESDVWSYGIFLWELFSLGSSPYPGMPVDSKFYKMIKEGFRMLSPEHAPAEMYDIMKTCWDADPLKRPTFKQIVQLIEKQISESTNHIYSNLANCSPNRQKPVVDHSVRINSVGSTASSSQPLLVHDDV
T18 sequence (P00533 with tags, fused parts or gaps DEL747-749/A750P limits assumed): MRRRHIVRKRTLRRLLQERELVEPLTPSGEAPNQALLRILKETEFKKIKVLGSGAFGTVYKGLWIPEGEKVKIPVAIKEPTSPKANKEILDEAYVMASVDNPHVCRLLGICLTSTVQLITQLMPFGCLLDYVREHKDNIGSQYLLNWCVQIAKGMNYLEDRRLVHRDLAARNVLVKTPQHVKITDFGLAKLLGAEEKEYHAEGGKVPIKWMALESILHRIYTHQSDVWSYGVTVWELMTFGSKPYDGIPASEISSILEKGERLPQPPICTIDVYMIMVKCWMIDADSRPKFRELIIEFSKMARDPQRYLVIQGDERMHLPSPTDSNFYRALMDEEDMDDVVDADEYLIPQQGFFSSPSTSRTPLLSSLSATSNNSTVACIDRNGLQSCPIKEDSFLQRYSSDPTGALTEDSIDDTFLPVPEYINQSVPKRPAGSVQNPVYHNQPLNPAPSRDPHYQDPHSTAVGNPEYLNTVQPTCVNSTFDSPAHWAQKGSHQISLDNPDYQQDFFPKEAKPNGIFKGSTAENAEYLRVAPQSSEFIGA
T26 sequence (P10721 26-976 D816V): as the sequence (P10721 26-976 N822K) above, with D791V, K797N counted along it
T37 sequence (P10721 26-976 V654A): as the sequence (P10721 26-976 N822K) above, with V629A, K797N counted along it

Compound: NS(=O)(=O)c1ccc(Nc2ncc3cc4n(c3n2)C2(CCCCC2)C(=O)NN4)cc1 [INX-315]
- inhibition at 0.1 µM (CDK11 (Inactive)): 2%
- inhibition at 0.1 µM (BRSK2): 4%
- inhibition at 0.1 µM (BMPR2): 17%
- inhibition at 0.1 µM (ALK F1174L): 12%
- inhibition at 0.1 µM (WNK2): -9%
- inhibition at 0.1 µM (BRAF V599E): -2%
- inhibition at 0.1 µM (GRK1): 27%
- inhibition at 0.1 µM (AMPK (A1/B2/G1)): 36%
- inhibition at 0.1 µM (DDR2): 18%
- inhibition at 0.1 µM (MASTL): 0%
- inhibition at 0.1 µM (EPHA7): 9%
- inhibition at 0.1 µM (STK17B (DRAK2)): 4%
- inhibition at 0.1 µM (MAP3K2 (MEKK2)): 12%
- inhibition at 0.1 µM (MYO3B (MYO3 beta)): 0%
- inhibition at 0.1 µM (FGFR1 V561M): 12%
- inhibition at 0.1 µM (AMPK (A2/B2/G2)): 11%
- inhibition at 0.1 µM (CAMK2G (CaMKII gamma)): -1%
- inhibition at 0.1 µM [1]: 12%
- inhibition at 0.1 µM (DAPK2): 11%
- inhibition at 0.1 µM (BMPR1B (ALK6)): 1%
- inhibition at 0.1 µM (ULK1): 1%
- inhibition at 0.1 µM (ICK): 28%
- inhibition at 0.1 µM (STK16 (PKL12)): 57%
- inhibition at 0.1 µM (RIPK3): -9%
- inhibition at 0.1 µM (KIT N822K): 17%
- inhibition at 0.1 µM (KIT D816V): 34%
- inhibition at 0.1 µM (MYLK4): 20%
- inhibition at 0.1 µM (ACVR2B): -2%
- inhibition at 0.1 µM (RIPK2): -1%
- inhibition at 0.1 µM (TGFBR2): 7%
- inhibition at 0.1 µM (AMPK (A1/B1/G2)): 15%
- inhibition at 0.1 µM [2]: 14%
- inhibition at 0.1 µM (CDK16 (PCTK1)/cyclin Y): 64%
- inhibition at 0.1 µM (ABL1 H396P): 12%
- inhibition at 0.1 µM (BRAF): -1%
- inhibition at 0.1 µM (MAPK15 (ERK7)): 87%
- inhibition at 0.1 µM (KIT V654A): 26%
